# Where “and” joins values, the source holds several entries; their conditions need not be identical. Equal entries are not always repeated. Marks after values point to notes of the source that are not given here.
# What was measured:
# [1] = MTT assay for cell viability; type: cell-based, mouse; details: mouse, RAW264.7 macrophage cells; 30 μM, 24 h, RAW264.7 cells
# Method: (§1) The RAW 264.7 mouse macrophage cell line was obtained from the China Cell Line Bank (Beijing, China). Cells were cultured in complete medium (DMEM supplemented with 10% heat-inactivated FBS, 3 mM glutamine and antibiotics (100 U/mL penicillin and 100 U/mL streptomycin)) at 37 °C in a humidified incubator containing 5% CO2 and 95% air. […]
# (§2) Cell viability studies induced by synthesised compounds were evaluated by 3-(4,5-dimethylthiazol-2-yl)-2,5-diphenyltetrazolium bromide (MTT) assay. RAW264.7 macrophages were seeded in 96-well plates at a density of 5 × 10^5 cells/mL in complete medium and incubated for 24 h (100 µL/well). Then the cells were treated with different concentrations of synthesised compounds for 24 h. 150 µL MTT (5 g/L in PBS) was added to each well and the cells were further incubated for 4 h. The supernatant was removed and the cells were lysed with 150 µL/well DMSO. The optical density was measured at 570 nm on a microplate reader (Thermo Scientific, MA, USA).
# [2] = test system: LPS-induced NO production in RAW264.7 macrophages; assay: Inhibition of LPS-induced NO production (Griess); type: cell-based, mouse; details: Mus musculus, RAW264.7; 10 µM, LPS 1 µg/mL, 24 h; read-out: NO inhibitory activity (% inhibition)
# Method: The RAW 264.7 mouse macrophage cell line was obtained from the China Cell Line Bank (Beijing, China). Cells were cultured in complete medium (DMEM supplemented with 10% heat-inactivated FBS, 3 mM glutamine and antibiotics (100 U/mL penicillin and 100 U/mL streptomycin)) at 37 °C in a humidified incubator containing 5% CO2 and 95% air. Cells were treated with various concentrations of synthesised compounds for 30 min followed by stimulation with LPS ([…]).
# Nitrite, a stable product of nitric oxide, was used to assess NO production. To study the effects of the isolated compounds on NO production, RAW264.7 cells were plated at 1 × 10^5 cells/well in a 96-well microplate and incubated overnight. The cells were pre-treated with various concentrations of the test compounds (3, 7.5, 10, 15, 30 or 100 µM) and further co-cultured with 1 µg/mL LPS for 24 h. Un-pre-treated and un-stimulated RAW 264.7 cells were conducted as the blank control group. At different time points, the supernatant (50 µL) was assayed with NO assay kit. The culture supernatant (50 µL) was mixed with an equal volume of the Griess reagent (1% sulphanilamide, 0.1% N-[1-naphthy] ethylenediamine dihydrochloride) and NO production were determined at 540 nm with an ELISAplate reader.
# [3] = test system: carrageenan-induced paw oedema; assay: Carrageenan-induced paw oedema model; type: in vivo, rats; details: 25 mg/kg p.o., n = 4
# From the text: The animal procedures were in strict accordance with the National Institutes of Healthy Guidelines for the Care and Use of Laboratory Animals (NIH Publication No. 85-23, revised 1996) and were approved by the Institutional Animal Care and Utilisation Committee of Yanbian University. Male albino rats weighing 280–300 gwere obtained from Animal Department of Yanbian University . They were kept in the animal house under standard condition of light and temperature with free access to food and water. The animals were randomly divided into five groups (control, D1, 6p, ibuprofen and celecoxib group) The groups with D1, 6p, ibuprofen and celecoxib were administered oral administration (p.o.) 25 mg/kg in a vehicle of 0.5% methylcellulose, respectively. The negative control group was treated with the same vehicle (0.5% methylcellulose). A solution of carrageenan (0.1 ml, 1.0% w/v in 0.9% of normal saline) was injected into the subplanter region of the left hind paw under light ether anaesthesia 1 h after oral administration (p.o.) of the test compound (at a dose level of 25 mg/kg body weight). The paw volume was measured at hourly interval for 5 h (0, 1, 3 and 5 h) and the percent inhibition of oedema was calculated using formula: %Inhibition=(Vt−Vo)control−(Vt−Vo)tested compound /(Vt−Vo)control×100 where, • Vo = volume of oedema at zero time interval. • Vt = volume of oedema at specific time interval.
# [4] = test system: gastric mucosa (stomach lesions); assay: Ulcerogenic effect; type: in vivo; details: 25 mg/kg p.o. once a day for three days, rats
# Method: The lead compound D1 and the newly synthesised compound 6p were subjected to in vivo testing to measure their ulcerogenic effect in comparison to celecoxib and ibuprofen. Male albino rats (220–250 g) divided into 5 groups (control, D1, 6p, ibuprofen and celecoxib group) of five rats each. The groups with D1, 6p, ibuprofen, and celecoxib were administered oral administration (p.o.) 25 mg/kg in a vehicle of 0.5% methylcellulose, respectively. The negative control group was treated with the same vehicle (0.5% methylcellulose). All groups were orally administered once a day for three consecutive days. Animals were sacrificed by diethyl ether 6 h after the last dose and the stomach was removed. An opening at the greater curvature was made and the stomach was cleaned by washing with cold saline and inspected with a three-time magnifying lens for any evidence of hyperaemia, haemorrhage, definite haemorrhagic erosion, or ulcer. An arbitrary scale was used to calculate the ulcer index which indicates the severity of the stomach lesions The % ulceration for each group was calculated as follows: % Ulceration = Number of animals bearing ulcer in a group/Total number of animals in the same group ×100.
# [5] = test system: RAW264.7 cells; assay: MTT assay for cell viability; type: cell-based, mouse; details: LPS 1 μg/mL
# Method: as §1, §2
compound,measurement,setting,value
Cc1cccc(Oc2nn3c(C(N)=O)nnc3c3ccccc23)c1 [D1],"viability at 24 h, 30 µM",[1],96.3 ± 1.72%
same,inhibition at 10 µM,[2],10.3%
same,% of oedema inhibition (% mean ± SD),[3]; 1 h,38.26 ± 2.82%
same,% of oedema inhibition (% mean ± SD),"[3]; 3 h, 25 mg/kg",42.81% and 42.81 ± 2.11%
same,% of oedema inhibition (% mean ± SD),[3]; 5 h,28.71 ± 2.92%
same,% ulceration,[4],20%
"lipopolysaccharide [LPS, reference compound]",Cell viability (%),[5],98.60 ± 2.12^a %
